One assay relates to MCF10A. The assay can be described thus: SRB cytotoxicity assay, immortalized normal breast epithelial cells. Type of assay: cell-based. Particulars: Homo sapiens, MCF-10A, 72 h treatment, non-tumorigenic immortalized breast epithelial cells. On the procedure:
HepG2, FOCUS, Hep3B, Mahlavu, Huh7, Hep40, and PLC-PRF-5 hepatocellular carcinoma cells; MCF-7, MDA-MB-231, MDA-MB-468, SKBR3, and ZR-75 breast cancer cells; and normal-like epithelial MCF-10A breast cells were cultured in low-glucose Dulbecco’s modified Eagle’s medium (DMEM) (Biological Industries-BI) supplemented with 10% fetal bovine serum (FBS) (Gibco/Thermo Fisher Scientific), 2 mM L-Glutamine (Gibco/Thermo Fisher Scientific), 100 Units/mL Penicillin/Streptomycin, and 0.1 mM non-essential amino acid (Gibco/Thermo Fisher Scientific). […]
Mahlavu, FOCUS, SNU475 (1000 cell/well in 150 μL/well); Huh7, MCF7 (2500 cell/well in 150 μL/well); HepG2, Hep3B, SKBR3 (3000 cell/well in 150 μL/well); PLC-PRF-5, Hep40 (5000 cell/well in 150 μL/well); MDA-MB-231, MDA-MB-468, MCF10A (6000 cell/well in 150 μL/well); and ZR-75 (7500 cell/well in 150 μL/well) were cultured in 96-well plates and were inoculated in an incubator for 24 hours. […] The protein-bound SRB was solubilized with 10 mM Tris-base (Sigma) and their absorbance was measured with a 96-well plate reader at 515 nm wavelength (ELx800, Biotek). The IC50 values of compounds were calculated in comparison with control group DMSO. […]
A general note: In SRB staining, fixed cells bind dye roughly in proportion to their protein.

The subject of assay [1] is Mahlavu, Huh7, MCF7, and MDA-MB-231. Kind of assay: Annexin V flow cytometry. Type of assay: cell-based, human. Particulars: 5 μM; compared to the control group. The method, then: Mahlavu, Huh7, MCF7, and MDA-MB-231 were seeded onto six-well plates. After 24 h, the cells were incubated with 5 μM compounds 11 and 85 by keeping DMSO as a negative control. […] PI and Annexin V dyes were added onto cell lysates for 15 min at room temperature in the dark to stain the cells for detecting apoptotic cell populations. The cells were analyzed by flow cytometry.
In general terms: In flow cytometry, cells or beads pass a laser one at a time.

Assay [2] concerns Mahlavu, Huh7, MCF7, and MDA-MB-231 cells. The assay can be described thus: Hoechst nuclear staining for cell death. The format is cell-based, human. Particulars: IC100 concentrations, 48 h. The method, then:
Mahlavu, Huh7, MCF7, and MDA-MB-231 cells were cultured onto cover slides in six-well plates for 24 h according to their cell growth rate. […] The 1× PBS was used to wash the cells three times, and the cells were fixed with 100% ice-cold methanol. Then, the cells were stained with 1 μg/mL Hoechst (#33258, Sigma). The cells were analyzed under the fluorescence microscope (Nikon Eclipse 50i).

Assay [3] relates to 22 cancer cells of the NCI 60 cell line panel. Kind of assay: NCI-60 single-dose screen, text summary. The format is cell-based. Particulars: against 22 cancer cells, read-out: growth inhibition (GI) values in the range. On the procedure:
(§1) Moreover, in vitro single-dose anticancer screening of 11 and 85 at 10 μM was performed utilizing the stable panel of 60 cell lines comprising 9 different cancer types at the National Cancer Institute (NCI) under the Developmental Therapeutics Program (Table S1).[31]

For a further assay, the system named is HOP-92. The assay can be described thus: NCI-60 single-dose screen. The format is cell-based. Particulars: Homo sapiens, HOP-92, Non-Small Cell Lung Cancer, read-out: % Growth Inhibition (GI%). The method, then: as §1
For another assay, the system named is PARP. The assay can be described thus: PARP cleavage western blotting. Type of assay: cell-based, human. Particulars: 5 μM, 48 h; MCF7, MDA-MB-231, Mahlavu; except for 11 treated MCF7 and Huh7 cells. The method, then: Cells were treated for 5 μM compounds 11 and 85 or control (DMSO). The treated cells were collected with a scraper at end of 48 h incubation and lysates were prepared. Protein concentration was calculated with a BCA assay. The protein levels were analyzed using protein electrophoresis according to the manufacturer’s protocol for near-infrared (NIR) Western Blot analysis (Mini-PROTEAN Tetra Cell Systems, Bio-Rad). The samples (40 μg /well) were loaded onto TGX precast gels, and protein transfer from gel to an LF-PVDF membrane was done using Trans-Blot Turbo System (Bio-Rad). Primary antibodies (PARP, CST, #9532S) and Calnexin (CST, #2679) and secondary antibodies IRDye 680RD Goat Anti Rabbit (Li-Cor, # 92668071) and IRDye- 800CW Goat Anti Rabbit (Licor, # 926e32211) were used for western blotting, and the proteins were monitored in fluorescence system using Odyssey CLx- LICOR imaging system.[32]
Background: A western blot detects proteins with antibodies after separation by electrophoresis.

In a further assay the test system is MDA-MB-231 xenografts. The assay can be described thus: MDA-MB-231 breast cancer xenograft. The format is in vivo, mouse. Particulars: nude mice, 40 mg/kg oral, twice a week, 4 weeks. The method, then:
Mahlavu cells (10 × 10^6 cells/mouse) prepared in 150 μL of DMEM were injected subcutaneously to the flank of 6–8 weeks old male athymic nude mice, while MDA-MB-231 cells (2 × 10^6cells/mouse) in 1:1 DMEM and matrigel were injected into mammary fat pad (MFP) of 6–8 weeks old female athymic nude mice. Tumor volume and mouse weight were measured twice a week using calipers. When the tumor volume reached ∼150 mm^3, xenografts were randomized into groups (6 mice per group), and the mice were administered subsequently with 11 or 85 (40 mg/kg in 0.5% hydroxypropyl methylcellulose plus 1% Tween 80) or vehicle by gavage feeding (3–4 days/week) for 4 weeks. The mice were sacrificed 30 days after initiation of the compound treatment and tumors were collected. Two-way ANOVA was performed for statistical significance by GraphPad Prism. All of the mice were maintained under a temperature-controlled environment with a 12 h light/dark cycle and received a standard diet and water ad libitum.

Turning to `Cc1ccccc1COc1ccc(-c2ccnn2-c2ccc(Cl)cc2)cc1` [compound 85, 1-(4-Chlorophenyl)-5-(4-((2-methylbenzyl)oxy)phenyl)-1H-pyrazole], the IC50 in the assay with MCF10A came to 7.6 µM. For the same compound, in assay [1], the “percentage of apoptotic populations (Annexin V)” value was “increased”. Moreover, the “Nuclear morphology by Hoechst staining” value in assay [2] is recorded as “Apoptotic bodies were detectable”. Besides, the inhibition at 10 µM is 45 to 100% in assay [3] and 25.8% with HOP-92. Further, in the assay with PARP, the PARP cleavage entry is “increase in PARP cleavage”. For the same compound, the “decrease in tumor volumes as compared to the control group” value with MDA-MB-231 xenografts is reported as around 50%.
`Cc1ccccc1COc1ccc(-c2noc(C)c2-c2ccc(Cl)cc2)cc1` [compound 11, 4-(4-Chlorophenyl)-5-methyl-3-(4-((2-methylbenzyl)oxy)phenyl)isoxazole] had an IC50 with MCF10A of 12.1 µM. For the same compound, the “percentage of apoptotic populations (Annexin V)” value in assay [1] is given as “increased”. Moreover, the “Nuclear morphology by Hoechst staining” value in assay [2] was “Apoptotic bodies were detectable”. Further, the inhibition at 10 µM was 45 to 100% in assay [3] and 27.4% with HOP-92. Moreover, the PARP cleavage result in the assay on PARP is “increase in PARP cleavage”. For the same compound, in the assay with MDA-MB-231 xenografts, the “decrease in tumor volumes as compared to the control group” value is around 50%.

By IC50 is commonly meant the concentration that gives 50% inhibition. By inhibition is commonly meant the change of the read-out against control, counted positive when it falls.
